# Measurements: BindingDB's records for doi:10.7270/Q2KP80MW (The Scripps Research Institute Molecular Screening Center, 2011)
# Target: T1, Peroxisome proliferator-activated receptor gamma (Homo sapiens, UniProt P37231)
# T1 sequence (P37231 whole entry): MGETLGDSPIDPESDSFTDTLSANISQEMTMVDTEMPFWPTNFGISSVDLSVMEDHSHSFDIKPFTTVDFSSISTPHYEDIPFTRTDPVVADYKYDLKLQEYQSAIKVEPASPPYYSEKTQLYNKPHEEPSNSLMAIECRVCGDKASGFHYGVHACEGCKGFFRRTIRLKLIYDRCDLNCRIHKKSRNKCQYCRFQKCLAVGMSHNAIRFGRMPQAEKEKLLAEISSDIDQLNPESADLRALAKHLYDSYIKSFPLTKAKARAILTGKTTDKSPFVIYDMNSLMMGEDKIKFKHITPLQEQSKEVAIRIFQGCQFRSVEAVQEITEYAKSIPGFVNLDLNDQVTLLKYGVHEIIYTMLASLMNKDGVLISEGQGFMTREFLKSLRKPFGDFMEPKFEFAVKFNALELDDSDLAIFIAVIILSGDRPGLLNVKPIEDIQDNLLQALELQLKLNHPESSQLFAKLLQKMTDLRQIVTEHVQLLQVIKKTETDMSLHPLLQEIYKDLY
# Assay: PPARg ligand-binding domain binders, dose response, PPARg partial agonist project, biochemical, fluorescence polarization, PolarScreen (AID 504453)
row,IC50 [µM],Structure (SMILES)
1,3,"CCOc1ccc2nc(N3C(=O)C(=O)C(C(=O)c4ccco4)C3c3ccco3)sc2c1 (centres undefined) [1-(6-ethoxy-1,3-benzothiazol-2-yl)-2-(2-furanyl)-3-[2-furanyl(oxo)methyl]-4-hydroxy-2H-pyrrol-5-one]"
2,22,Cc1ccc2nc(N3C(=O)C(=O)C(C(=O)c4ccc(C)o4)C3c3ccco3)sc2c1 (centres undefined)
3,5,COc1ccc2nc(N3C(=O)C(=O)C(C(=O)c4ccco4)C3c3ccc(C)o3)sc2c1 (centres undefined)
4,30,"Cc1ccc2nc(N3C(=O)C(=O)C(C(=O)c4ccco4)C3c3ccc(C)o3)sc2c1 (centres undefined) [3-[2-furanyl(oxo)methyl]-4-hydroxy-1-(6-methyl-1,3-benzothiazol-2-yl)-2-(5-methyl-2-furanyl)-2H-pyrrol-5-one;oxalic acid]"
